Measured values published in patent US8524690B2, “DNA polymerase inhibitors composition and methods” (The Trustees of the University of Pennsylvania, priority 2007, dated 2013).

Legend:
[1] = cited from earlier work
hair of the beard area = assay: Topical 3% cidofovir ointment applied once a day to beard area of a patient: alopecia and local tolerability; type: in vivo, human
Experimental: A 3% topical ointment of cidofovir was prepared by mixing 3 g of cidofovir in 97 g of petrolatum.
(§1) A 3% topical preparation of cidofovir was applied to the beard area of a patient. The formulation was applied by the patient once a day to the affected areas of the face for the treatment of verruca vulgaris (warts). […] After 4-8 weeks the patient had alopecia in the areas of the face where the medication was applied. This was the only hair bearing area that the patient applied the medication to. The warts resolved in approximately 2-3 months.
The hair cycle time of the face is the shortest on the body. At any one point in time, up to 80% of the hair on the face (i.e. the beard area) is in the active growth phase.

verruca vulgaris (warts) = assay: Topical 3% cidofovir applied to the face for treatment of verruca vulgaris (warts); type: in vivo, human; conditions: 3% topical ointment, once a day, one patient
Experimental: as §1, with “A 3% topical ointment of cidofovir was prepared by mixing 3 g of cidofovir in 97 g of petrolatum. A 3%” for “A 3%”

Nc1nc2c(ncn2COCCO)c(=O)[nH]1 [Acyclovir]
oral bioavailability [1]: low oral bioavailability

Nc1ccn(C[C@@H](CO)OCP(=O)(O)O)c(=O)n1 [cidofovir, (S)-1-[3-hydroxy-2-(phosphonylmethoxy)propyl]cytosine]
time until alopecia in the areas of the face where the medication was applied (hair of the beard area; 3% topical ointment in petrolatum, once a day, beard area, one patient): 4-8 weeks | local reaction to application (hair of the beard area; 3% topical ointment, once a day, face, application discontinued for several days then resumed): mild inflammation | hair regrowth upon discontinuation of topical cidofovir (hair of the beard area; after stopping 3% topical cidofovir, beard area): the hair grew back | time until warts resolved (verruca vulgaris (warts)): 2-3 months
